Source: paper PMC9030166, “Natural Phaeosphaeride A Derivatives Overcome Drug Resistance of Tumor Cells and Modulate Signaling Pathways” (Pharmaceuticals, 2022)
pIC50: −log10 of the molar value. Values joined by “and” are separate entries in the source; they are usually repeats but may differ in a detail not shown here. Equal entries are not always repeated.

What was measured:
A431 cells = experiment: IC50 on A431 cells (xCelligence RTCA cell index); format: cell-based; details: Homo sapiens, A-431
Excerpt: A431 cells are characterized by a high inducibility of transcription factors STAT3 and STAT5. In turn, phaeosphaeride A and its derivatives are probably inhibitors of the STAT3 gene. Therefore, the A431 cell line was chosen as a model for searching for possible targets for the action of phaeosphaeride A derivatives. Table 7 presents IC50 data for phaeosphaeride A derivatives on A431 cells.
(§1) The effect of various concentrations of PPA derivatives on the cell culture was studied using xCelligence RTCA equipment (AceaBioscience, San Diego, CA, USA). The concentration closest to the IC50 (10 μM) was chosen as the experimental concentration. The selected concentration of phaeosphaeride A derivatives allows for the assessment of the early effect of compounds on cells and compares their effectiveness. In this experiment, the signaling pathways Akt (pSer473), p70S6K (pThr412), NFkB (p65-pSer536), and CREB (pSer133) were not activated (Table 8). The stress-activated signaling pathways ERK/MAP kinase 1/2 (pThr185/pTyr187), JNK (pThr183/pTyr185), and p38 (pThr180/pTyr182) were activated for these compounds.
To determine the integral cellular response using the xCelligence RTCA equipment (AceaBioscience, Santa Clara, CA, USA), 20 thousand cells were inoculated into a well of a specialized plate allowing the determination of the cell index in real time and cultured in complete growth medium. The next day after the seeding, the medium was replaced with an experimental one (compounds at concentrations of […]). The cell index was monitored for 3 days after the addition of the xenobiotic. The concentration closest to the IC50 (10 μM) was chosen as the experimental concentration.

STAT5 (pTyr694/699) = experiment: MILLIPLEX MAP 9-Plex, STAT5 active form in A431 lysates; format: cell-based, human; details: 10 μM; for STAT5 (pTyr694/699) fluorescence intensity: A431 cell lysates, 1 h, M ± mx, control 44.2 ± 10.2
Excerpt: (§2) We used the MILLIPLEX MAP Multi-Pathway Magnetic Bead 9-Plex-Cell Signaling Multiplex Assay, which allows the simultaneous detection of nine phosphorylated proteins that are markers of the main intracellular signaling pathways (phosphorylation site is indicated in parentheses), a universal transcription factor that controls the expression of immune response genes; apoptosis and cell cycle NFκB (pS536); cAMP-dependent transcription factor (CREB (pS133); mitogen-activated kinase p38 (pT180/pY182); stress-activated protein kinase JNK (pT183/pY185); ribosomal […]; transcription factors STAT3 (pS727) and STAT5A/B (pY694/699); protein kinase B (Akt) (pS473); and kinase regulated by extracellular signals ERK1/2 (pT185/pY187).
as §1
(§3) We used a MILLIPLEX MAP Multi-Pathway Magnetic Bead 9-Plex-Cell Signaling Multiplex Assay kit (Merck/Millipore), according to the manufacturer’s protocol. A431 cells were cultured in DMEM with 10% FBS in 24-well plates. Compounds were added to the subconfluent cells at a concentration of 10 μM in DMEM medium for 1 h. Each compound was added in 5 experimental repeats. Cell lysates were prepared with lysis buffer (Millipore) with protease inhibitors (Complete, Roche); the protein concentration in the lysates was determined by the Lowry method. In samples equalized in protein concentration, the active forms of kinase cascades were determined using a Bio-Plex 200 fluorescent analyzer (Bio-Rad).

p38 (pThr180/pTyr182) = experiment: MILLIPLEX MAP 9-Plex, p38 active form in A431 lysates; format: cell-based, human; details: 10 μM; for p38 (pThr180/pTyr182) fluorescence intensity: A431 cell lysates, M ± mx, control 567.7 ± 266.6; for p38 (pThr180/pTyr182) fluorescence intensity / increase of fluorescence intensity of the active form p38: 1 h; for increase of fluorescence intensity of the active form p38 / activation of signaling pathway p38 (pThr180/pTyr182), in words: A431 cells; for increase of fluorescence intensity of the active form p38: versus control
Excerpt: as §2, §1, §3

P-glycoprotein = biological target: T1, P-glycoprotein (Homo sapiens, UniProt P08183); experiment: Release of rhodamine 123 (Rd123) from K562/i-S9_Dox cells, flow cytometry; format: cell-based; details: K562/i-S9_Dox cells after Rd123 release, compound 20 μM, 35 min; release without compound 17.1 ± 6.6
T1 construct: expressed in transfected cells; host or cells: K562/i-S9_Dox (K562 transfected with ABCB1/MDR1, then selected with increasing doxorubicin)
Method: The principle of the test is as follows: Rd123 is a fluorophore and a known P-gp substrate. During incubation, Rd123 enters the cells by simple diffusion, and then Rd123 begins to interact with P-gp, which releases it from the cell. Cells in which Rd123 is present are stained and can be detected by flow cytometry. The more efficiently P-gp works, the less stained cells in the population remain over time.
The experiment used K562/i-S9_Dox cells with P-gp overexpression. Cells (5 × 10^5 per point) were incubated with Rd123 at a concentration of 3.5 μg/mL for 20 min in serum-free RPMI1640 medium. Furthermore, the efficiency of Rd123 entry into cells was assessed. […] Incubation with substances took place for 35 min in 1 mL of serum-free medium. Then, the cells were precipitated, washed with PBS solution, and the % of stained cells in the population were assessed on a flow cytometer.

T1 sequence (P08183 whole entry): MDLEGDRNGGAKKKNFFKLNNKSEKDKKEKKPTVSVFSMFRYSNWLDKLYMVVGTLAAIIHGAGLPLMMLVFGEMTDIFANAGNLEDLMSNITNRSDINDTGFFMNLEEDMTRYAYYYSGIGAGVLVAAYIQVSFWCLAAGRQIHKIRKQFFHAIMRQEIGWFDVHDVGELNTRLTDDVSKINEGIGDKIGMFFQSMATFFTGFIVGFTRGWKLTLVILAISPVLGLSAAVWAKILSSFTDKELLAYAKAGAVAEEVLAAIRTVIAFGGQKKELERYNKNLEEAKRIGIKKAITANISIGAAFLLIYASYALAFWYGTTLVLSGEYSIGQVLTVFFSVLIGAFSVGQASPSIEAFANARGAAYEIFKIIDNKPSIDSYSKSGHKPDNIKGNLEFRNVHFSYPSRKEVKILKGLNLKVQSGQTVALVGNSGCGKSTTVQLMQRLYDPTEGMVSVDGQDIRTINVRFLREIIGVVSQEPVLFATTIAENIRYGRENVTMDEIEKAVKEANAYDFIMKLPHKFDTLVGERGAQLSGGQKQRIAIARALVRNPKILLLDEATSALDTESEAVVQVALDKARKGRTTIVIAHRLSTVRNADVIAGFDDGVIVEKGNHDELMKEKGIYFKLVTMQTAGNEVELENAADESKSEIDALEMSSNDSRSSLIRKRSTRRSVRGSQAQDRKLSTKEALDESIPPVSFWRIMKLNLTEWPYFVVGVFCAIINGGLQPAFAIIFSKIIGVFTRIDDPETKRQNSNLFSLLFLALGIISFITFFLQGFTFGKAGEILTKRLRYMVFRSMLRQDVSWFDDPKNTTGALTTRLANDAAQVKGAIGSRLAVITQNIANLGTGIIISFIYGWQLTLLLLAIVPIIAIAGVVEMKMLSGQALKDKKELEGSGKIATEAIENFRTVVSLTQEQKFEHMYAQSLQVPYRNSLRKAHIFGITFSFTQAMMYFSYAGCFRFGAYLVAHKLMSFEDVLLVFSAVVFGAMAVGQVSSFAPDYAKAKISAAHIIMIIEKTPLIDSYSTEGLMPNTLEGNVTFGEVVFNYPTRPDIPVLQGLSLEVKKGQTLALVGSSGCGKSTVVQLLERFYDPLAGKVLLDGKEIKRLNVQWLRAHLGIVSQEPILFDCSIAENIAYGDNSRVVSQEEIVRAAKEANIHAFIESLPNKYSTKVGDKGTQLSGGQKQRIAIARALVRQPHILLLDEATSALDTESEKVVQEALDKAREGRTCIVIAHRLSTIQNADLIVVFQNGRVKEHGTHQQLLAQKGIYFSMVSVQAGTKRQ

SMILES	pIC50 (A431 cells)	STAT5 (pTyr694/699) fluorescence intensity (STAT5 (pTyr694/699))	p38 (pThr180/pTyr182) fluorescence intensity (p38 (pThr180/pTyr182))	increase of fluorescence intensity of the active form p38 (p38 (pThr180/pTyr182))	% Luminous Cells (P-glycoprotein)	activation of transcription factor STAT5A/B (pTyr694/699), in words (STAT5 (pTyr694/699); A431 cells)	activation of signaling pathway p38 (pThr180/pTyr182), in words (p38 (pThr180/pTyr182))
C=C1C2=C(C(=O)N1OC)[C@@H](N1CCCC1)[C@@](C)(O)[C@H](CCCCC)O2 [Compound 1]	5.43	115.4 ± 28.3 rel. units	2349.9 ± 755.5 rel. units	1.5–3 times	73% and 73.4 ± 6.7%	–	–
C=C1C2=C(C(=O)N1OC)[C@@H](N(C)C)[C@@](C)(O)[C@H](CCCCC)O2 [Compound 2, (2S,3R,4R)-4-(dimethylamino)-3-hydroxy-6-methoxy-3-methyl-7-methylene-2-pentyl-3,4,6,7-tetrahydropyrano[2,3-c]pyrrol-5(2H)-one]	5.72	179.2 ± 12.6 *↑ rel. units	2795.4 ± 572.0 *↑ rel. units	1.5–3 times	82% and 82.4 ± 3.0%	slightly activated	maximum degree of activation
C=C1C2=C(C(=O)N1OC)[C@@H](N(CCCC)CCCC)[C@@](C)(O)[C@H](CCCCC)O2 [Compound 5, (2S,3R,4R)-4-(dibutylamino)-3-hydroxy-6-methoxy-3-methyl-7-methylene-2-pentyl-3,4,6,7-tetrahydropyrano[2,3-c]pyrrol-5(2H)-one]	< 4.30	75.7 ± 2.7 *↑ rel. units	1245.9 ± 342.8 rel. units	–	–	–	only slightly activated
C=C1C2=C(C(=O)N1OC)[C@@H](N(CC)CCO)[C@@](C)(O)[C@H](CCCCC)O2 [Compound 9, (2S,3R,4R)-4-[ethyl(2-hydroxyethyl)amino]-3-hydroxy-6-methoxy-3-methyl-7-methylene-2-pentyl-3,4,6,7-tetrahydropyrano[2,3-c]pyrrol-5(2H)-one]	5.34	69.6 ± 15.6 rel. units	657.1 ± 287.5 rel. units	1.5–3 times	80% and 80.2 ± 6.2%	–	–
CCCCC[C@@H]1OC2=C(C(=O)N(OC)/C2=C\n2cnnc2)C(n2cnnc2)[C@@]1(C)O (stereo partly shown) [Compound 10]	< 4.30	115.2 ± 16.9 *↑ rel. units	1783.6 ± 181.9 *↑ rel. units	–	–	–	only slightly activated
